Results as given in PMC9919591, “New Triazine Derivatives as Serotonin 5-HT6 Receptor Ligands” (Molecules, 2023).
Values joined by “and” are separate entries in the source; they are usually repeats but may differ in a detail not shown here. Equal values may be shown once. Where a name gives a salt, the structure may show the parent alone.

Assays:
[1] = PAMPA, study b; cited from earlier work
human 5-HT6R = target: T1, human 5-HT6R (Homo sapiens, UniProt P50406); assay: Radioligand binding assay, 5-HT6R ([3H]-LSD); conditions: for decrease in affinity for 5-HT6R compared to MST4: ratio of Ki values vs MST4 (Ki = 11 nM); for Ki: [3H]-LSD, HEK293 cells stably expressing human 5-HT6R, average of at least two independent experiments
T1 construct: expressed in transfected cells; host or cells: HEK293
Description: The affinity of compounds (1–25) for 5-HT6R was evaluated in the radioligand binding assay in HEK293 cells stably expressing human 5-HT6R. [^3H]-LSD as a radioligand was used. […] All results are collected in Table 1, Table 2 and Table 3.
Radioligand binding assays were used to determine the affinity of the synthesized compounds for human serotonin 5-HT6R, 5-HT2AR, 5-HT7R and dopamine D2R, which were stably expressed in HEK293 cells or CHOk1 cells (5-HT2AR). This was done as described previously.

human 5-HT2AR = target: T2, human 5-HT2AR (Homo sapiens, UniProt P28223); assay: Radioligand binding assay, 5-HT2AR ([3H]-ketanserin); conditions: CHO-K1 cells stably expressing human 5-HT2AR
T2 construct: expressed in transfected cells; host or cells: CHO-K1
Description: (§1) Affinity for serotonin 5-HT2A, 5-HT7 and dopamine D2 receptors (D2R) as protein off-targets was evaluated in the radioligand binding assays. In CHO-K1 cells, it was stably expressed human 5-HT2AR, whereas human 5-HT7R and D2R were stably expressed in HEK293 cells. […] A particularly weak affinity towards this receptor was shown through compounds of series 1 (compounds 1–7) and series 2 (compounds 8–13). […]. Radioligand binding assays were used to determine the affinity of the synthesized compounds for human serotonin 5-HT6R, 5-HT2AR, 5-HT7R and dopamine D2R, which were stably expressed in HEK293 cells or CHOk1 cells (5-HT2AR). This was done as described previously.

human 5-HT7R = target: T3, human 5-HT7R (Homo sapiens, UniProt P34969); assay: Radioligand binding assay, 5-HT7R ([3H]-5-CT); conditions: HEK293 cells stably expressing human 5-HT7R
T3 construct: expressed in transfected cells; host or cells: HEK293
Description: as §1

human D2R = target: T4, human D2R (Homo sapiens, UniProt P14416); assay: Radioligand binding assay, D2R ([3H]-raclopride); conditions: HEK293 cells stably expressing human D2R
T4 construct: expressed in transfected cells; host or cells: HEK293
Description: as §1

T1 sequence (P50406 whole entry): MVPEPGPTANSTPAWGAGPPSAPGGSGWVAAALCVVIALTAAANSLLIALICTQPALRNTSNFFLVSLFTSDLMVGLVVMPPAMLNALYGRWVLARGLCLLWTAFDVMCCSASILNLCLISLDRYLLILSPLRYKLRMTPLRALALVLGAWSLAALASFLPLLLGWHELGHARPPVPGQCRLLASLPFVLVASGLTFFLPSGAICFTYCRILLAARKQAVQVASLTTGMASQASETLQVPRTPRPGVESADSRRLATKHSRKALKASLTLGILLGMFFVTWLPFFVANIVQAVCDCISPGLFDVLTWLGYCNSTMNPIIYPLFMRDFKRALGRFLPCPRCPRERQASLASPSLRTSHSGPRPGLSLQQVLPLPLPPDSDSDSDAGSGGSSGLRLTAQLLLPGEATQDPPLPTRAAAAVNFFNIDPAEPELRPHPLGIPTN
T4 sequence (P14416 whole entry): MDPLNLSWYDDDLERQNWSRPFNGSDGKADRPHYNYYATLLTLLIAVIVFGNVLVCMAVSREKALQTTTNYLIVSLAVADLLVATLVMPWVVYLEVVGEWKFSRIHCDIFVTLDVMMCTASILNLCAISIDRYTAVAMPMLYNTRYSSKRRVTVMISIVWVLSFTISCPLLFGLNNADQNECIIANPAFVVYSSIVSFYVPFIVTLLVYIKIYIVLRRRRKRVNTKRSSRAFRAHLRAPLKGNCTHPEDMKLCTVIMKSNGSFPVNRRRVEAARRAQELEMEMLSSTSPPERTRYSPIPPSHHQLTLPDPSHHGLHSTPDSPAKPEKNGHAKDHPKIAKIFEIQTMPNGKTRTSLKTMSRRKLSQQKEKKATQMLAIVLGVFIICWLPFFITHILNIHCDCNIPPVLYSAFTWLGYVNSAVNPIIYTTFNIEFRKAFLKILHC
T2 sequence (P28223 whole entry): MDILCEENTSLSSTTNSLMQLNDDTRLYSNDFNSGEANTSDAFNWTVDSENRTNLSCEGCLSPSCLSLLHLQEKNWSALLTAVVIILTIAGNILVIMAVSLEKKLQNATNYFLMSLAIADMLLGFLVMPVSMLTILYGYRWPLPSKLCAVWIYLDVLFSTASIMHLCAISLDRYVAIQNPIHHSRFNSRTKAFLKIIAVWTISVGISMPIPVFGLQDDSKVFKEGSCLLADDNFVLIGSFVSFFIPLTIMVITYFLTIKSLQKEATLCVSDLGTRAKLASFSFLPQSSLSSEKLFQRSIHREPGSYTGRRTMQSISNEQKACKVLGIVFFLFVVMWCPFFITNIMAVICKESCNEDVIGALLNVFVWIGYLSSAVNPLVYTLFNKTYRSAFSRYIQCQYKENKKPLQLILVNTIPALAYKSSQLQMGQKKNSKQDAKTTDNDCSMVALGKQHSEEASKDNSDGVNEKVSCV
T3 sequence (P34969 whole entry): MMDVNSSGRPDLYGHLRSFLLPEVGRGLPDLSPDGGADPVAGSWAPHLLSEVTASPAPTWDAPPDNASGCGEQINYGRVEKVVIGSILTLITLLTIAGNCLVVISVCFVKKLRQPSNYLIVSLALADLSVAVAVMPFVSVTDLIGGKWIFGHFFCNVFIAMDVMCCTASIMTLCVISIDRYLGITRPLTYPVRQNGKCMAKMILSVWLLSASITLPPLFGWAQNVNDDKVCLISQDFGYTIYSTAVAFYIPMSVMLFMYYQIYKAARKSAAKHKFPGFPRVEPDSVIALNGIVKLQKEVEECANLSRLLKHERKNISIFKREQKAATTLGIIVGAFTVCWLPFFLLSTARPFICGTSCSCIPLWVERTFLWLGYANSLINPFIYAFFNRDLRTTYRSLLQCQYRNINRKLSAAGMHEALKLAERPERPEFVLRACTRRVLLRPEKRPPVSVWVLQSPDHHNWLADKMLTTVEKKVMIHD

Row | SMILES | melting point | Pe ± SD [1] | decrease in affinity for 5-HT6R compared to MST4 (human 5-HT6R) [fold] | Ki (human 5-HT6R) [nM] | Ki (human 5-HT2AR) [nM] | Ki (human 5-HT7R) [nM] | Ki (human D2R) [nM]
1 | CN1CCN(c2nc(N)nc(COc3ccc(C(C)(C)C)cc3C(C)(C)C)n2)CC1 (as salt: hydrochloride) [Compound 13, 4-((2,4-(di-tert-Butyl)phenoxy)methyl)-6-(4-methylpiperazin-1-yl)-1,3,5-triazin-2-amine hydrochloride] | 284 to 287 °C | – | – | – | – | – | –
2 | Cn1c(=O)c2c(ncn2C)n(C)c1=O [CFN, Caffeine] | – | 15.1 ± 0.4 ×10^−6 cm/s | – | – | – | – | –
3 | Cc1cccc(OCc2nc(N)nc(N3CCN(C)CC3)n2)c1 [Compound 1] | – | – | 19 | – | – | – | –
4 | CC(C)c1ccccc1OCc1nc(N)nc(N2CCN(C)CC2)n1 [Compound 2, 4-((2-Isopropylphenoxy)methyl)-6-(4-methylpiperazin-1-yl)-1,3,5-triazin-2-amine] | 140 to 142 °C | – | 2 | 21 | 1270 | 16300 | –
5 | CC(C)c1cccc(OCc2nc(N)nc(N3CCN(C)CC3)n2)c1 [Compound 4, 4-((3-Isopropylphenoxy)methyl)-6-(4-methylpiperazin-1-yl)-1,3,5-triazin-2-amine] | 103 to 105 °C | – | – | 41 | 2610 | 5730 | 1790
6 | CN1CCN(c2nc(N)nc(COc3cccc(C(C)(C)C)c3)n2)CC1 [Compound 5, 4-((3-(tert-Butyl)phenoxy)methyl)-6-(4-methylpiperazin-1-yl)-1,3,5-triazin-2-amine] | 101.2 to 104.1 °C | – | – | 108 | 3110 | 15500 | –
7 | CC(C)c1ccc(OCc2nc(N)nc(N3CCN(C)CC3)n2)cc1 [Compound 6, 4-((4-Isopropylphenoxy)methyl)-6-(4-methylpiperazin-1-yl)-1,3,5-triazin-2-amine] | 133 to 135 °C | – | – | 416 | 248 | 10100 | –
8 | CN1CCN(c2nc(N)nc(COc3ccc(C(C)(C)C)cc3)n2)CC1 [Compound 7, 4-((4-(tert-Butyl)phenoxy)methyl)-6-(4-methylpiperazin-1-yl)-1,3,5-triazin-2-amine] | 104.4 °C (dec.) | – | – | 150 | 549 | 4140 | 3130
9 | Cc1ccc(C(C)(C)C)c(OCc2nc(N)nc(N3CCN(C)CC3)n2)c1.Cl [Compound 8, 4-((2-(tert-Butyl)-5-methylphenoxy)methyl)-6-(4-methylpiperazin-1-yl)-1,3,5-triazin-2-amine hydrochloride] | 259 °C (dec.) | – | – | 6 | 1240 | 15100 | 1570
10 | Cc1ccc(OCc2nc(N)nc(N3CCN(C)CC3)n2)c(C(C)(C)C)c1 [Compound 9, 4-((2-(tert-Butyl)-4-methylphenoxy)methyl)-6-(4-methylpiperazin-1-yl)-1,3,5-triazin-2-amine] | 146.5 °C (dec.) | – | – | 48 | 1930 | 10900 | 2300
11 | Cc1cccc(C(C)(C)C)c1OCc1nc(N)nc(N2CCN(C)CC2)n1 [Compound 10, 4-((2-(tert-Butyl)-6-methylphenoxy)methyl)-6-(4-methylpiperazin-1-yl)-1,3,5-triazin-2-amine] | 177 to 179 °C (dec.) | – | – | 236 | – | 16600 | –
12 | CC(C)c1cccc(C(C)C)c1OCc1nc(N)nc(N2CCN(C)CC2)n1 [Compound 11, 4-((2,6-Diisopropylphenoxy)methyl)-6-(4-methylpiperazin-1-yl)-1,3,5-triazin-2-amine] | 160 to 163 °C | – | – | 825 | 7800 | 33600 | –
13 | CN1CCN(c2nc(N)nc(COc3c(C(C)(C)C)cccc3C(C)(C)C)n2)CC1 [Compound 12, 4-((2,6-(di-tert-Butyl)phenoxy)methyl)-6-(4-methylpiperazin-1-yl)-1,3,5-triazin-2-amine hydrochloride] | – | – | – | 379 | – | 8090 | –
14 | CN1CCN(c2nc(N)nc(COc3ccc(C(C)(C)C)cc3C(C)(C)C)n2)CC1 [Compound 13, 4-((2,4-(di-tert-Butyl)phenoxy)methyl)-6-(4-methylpiperazin-1-yl)-1,3,5-triazin-2-amine hydrochloride] | – | – | – | 162 | 760 | 8470 | 2740
15 | Cc1ccc(C(C)C)c(OCCCc2nc(N)nc(N3CCN(C)CC3)n2)c1 [Compound 14, 4-(3-(2-Isopropyl-5-methylphenoxy)propyl)-6-(4-methylpiperazin-1-yl)-1,3,5-triazin-2-amine] | 77 °C | – | – | 412 | 1690 | 6660 | 1590
16 | CC(C)c1ccccc1OCCCc1nc(N)nc(N2CCN(C)CC2)n1.Cl [Compound 15, 4-(3-(2-Isopropylphenoxy)propyl)-6-(4-methylpiperazin-1-yl)-1,3,5-triazin-2-amine hydrochloride] | 235 °C | – | – | 221 | 489 | 8870 | 2430
17 | CC(C)c1ccc(OCCCc2nc(N)nc(N3CCN(C)CC3)n2)cc1 [Compound 16, 4-(3-(4-Isopropylphenoxy)propyl)-6-(4-methylpiperazin-1-yl)-1,3,5-triazin-2-amine] | 92 °C | – | – | 1110 | 1170 | 5120 | 704
18 | Cc1cccc(OCCCc2nc(N)nc(N3CCN(C)CC3)n2)c1 [Compound 17, 4-(4-Methylpiperazin-1-yl)-6-(3-(m-tolyloxy)propyl)-1,3,5-triazin-2-amine] | 114 to 117 °C | – | – | 1460 | 3850 | 30200 | 2600
19 | Cc1ccccc1OCCCc1nc(N)nc(N2CCN(C)CC2)n1 [Compound 18, 4-(4-Methylpiperazin-1-yl)-6-(3-(o-tolyloxy)propyl)-1,3,5-triazin-2-amine] | 83 °C | – | – | 574 | 1440 | 14900 | 1760
20 | Cc1ccc(C(C)C)c(OCCCCc2nc(N)nc(N3CCN(C)CC3)n2)c1.Cl [Compound 19, 4-(4-(2-Isopropyl-5-methylphenoxy)butyl)-6-(4-methylpiperazin-1-yl)-1,3,5-triazin-2-amine hydrochloride] | 239 °C | – | – | 142 | 687 | 638 | 3200
21 | CC(C)c1ccccc1OCCCCc1nc(N)nc(N2CCN(C)CC2)n1 [Compound 20, 4-(4-(2-Isopropylphenoxy)butyl)-6-(4-methylpiperazin-1-yl)-1,3,5-triazin-2-amine] | 59 °C | – | – | 43 | 677 | 665 | 5690
22 | Cc1cccc(OCCCCc2nc(N)nc(N3CCN(C)CC3)n2)c1 [Compound 21, 4-(4-Methylpiperazin-1-yl)-6-(4-(m-tolyloxy)butyl)-1,3,5-triazin-2-amine] | 99 to 101 °C | – | – | 559 | 952 | 6250 | 612
23 | Cc1ccc(C(C)C)c(OCCCCCc2nc(N)nc(N3CCN(C)CC3)n2)c1 [Compound 22, 4-(5-(2-Isopropyl-5-methylphenoxy)pentyl)-6-(4-methylpiperazin-1-yl)-1,3,5-triazin-2-amine] | 75 °C (dec.) | – | – | 282 | 709 | 771 | 837
24 | CC(C)c1ccccc1OCCCCCc1nc(N)nc(N2CCN(C)CC2)n1 [Compound 23, 4-(5-(2-Isopropylphenoxy)pentyl)-6-(4-methylpiperazin-1-yl)-1,3,5-triazin-2-amine] | 63 to 65 °C | – | – | 189 | 597 | 3430 | 196
25 | Cc1cccc(OCCCCCc2nc(N)nc(N3CCN(C)CC3)n2)c1 [Compound 24, 4-(4-Methylpiperazin-1-yl)-6-(5-(m-tolyloxy)pentyl) 1,3,5-triazin-2-amine] | 83 to 85 °C | – | – | 644 | 854 | 1890 | 481
26 | Cc1ccc(C(C)C)c(OCCCCCCc2nc(N)nc(N3CCN(C)CC3)n2)c1 [Compound 25, 4-(6-(2-Isopropyl-5-methylphenoxy)hexyl)-6-(4-methylpiperazin-1-yl)-1,3,5-triazin-2-amine] | 59 °C (dec.) | – | – | 78 | 364 | 1030 | 149
27 | Cc1ccc(C(C)C)c(OCc2nc(N)nc(N3CCN(C)CC3)n2)c1 [MST4, 4-((2-isopropyl-5-methylphenoxy)methyl)-6-(4-methylpiperazin-1-yl)-1,3,5-triazin-2-amine] | – | 12.3 ×10^−6 cm/s and 12.3 ± 2.0 ×10^−6 cm/s | – | – | – | – | –
